# Counter-ions that a name gives are not always drawn. Like-named read-outs stand apart in the source and are kept apart here.
# System: centipedegrass
# Conditions: for centipedegrass injury: dicamba alone, 0 to 10 scale; for Observed Injury: 0-10 scale, 0=no injury, 10=death
# Method: A trial was initiated Apr. […] Research was conducted as a randomized complete block design (4 reps), with plot size equal to 6 square meters (2 meter width and 3 meter length). This provided a roughly 1.5 foot buffer between experimental units for reference. Herbicide treatments were applied within a water carrier volume of 40 gallons/acre. A two inch rainfall occurred 48 hours prior to initiation (April 17). Time to next rainfall: roughly 1 inch fell during the late night hours of the 21st and early morning of 22nd. Centipedegrass was approximately 90% green cover at time of treatment-almost fully transitioned from winter dormancy. […] Turf injury (0-10 scale, 0=no injury, 10=death), color (1-9 scale, 1=brown, 9=dark green), and density (0-100%) were evaluated 5, 8, 13, 23, 29 and 44 days after treatment (DAT). Data were subject to analysis of variance (alpha=0.05). Means separations were estimated using Student Knewman Keul's test (alpha=0.05) within ARM v.
structure (smiles),measurement,setting,value
"COc1c(Cl)ccc(Cl)c1C(=O)O [Dicamba MIBPA, N,N-bis(3-aminopropyl)methylamine salt (MIBPA) of dicamba]",centipedegrass injury,"23 DAT, regardless of rate",< 0.8
same,centipedegrass injury,"29 DAT, across all rates",0
same,Observed Injury,"Dicamba MIBPA 0.12 lb ae/a alone, 5 DAA",0.0
same,Observed Injury,"Dicamba MIBPA 0.12 lb ae/a alone, 8 DAA",0.0
same,Observed Injury,"Dicamba MIBPA 0.12 lb ae/a alone, 13 DAA",0.0
same,Observed Injury,"Dicamba MIBPA 0.12 lb ae/a alone, 23 DAA",0.38
same,Observed Injury,"Dicamba MIBPA 0.12 lb ae/a alone, 29 DAA",0.00
same,Observed Injury,"Dicamba MIBPA 0.12 lb ae/a alone, 44 DAA",0.25
same,Observed Injury,"Dicamba MIBPA 0.24 lb ae/a alone, 5 DAA",0.0
same,Observed Injury,"Dicamba MIBPA 0.24 lb ae/a alone, 8 DAA",0.0
same,Observed Injury,"Dicamba MIBPA 0.24 lb ae/a alone, 13 DAA",0.0
same,Observed Injury,"Dicamba MIBPA 0.24 lb ae/a alone, 23 DAA",0.38
same,Observed Injury,"Dicamba MIBPA 0.24 lb ae/a alone, 29 DAA",0.00
same,Observed Injury,"Dicamba MIBPA 0.24 lb ae/a alone, 44 DAA",0.38
same,Observed Injury,"Dicamba MIBPA 0.36 lb ae/a alone, 5 DAA",0.0
same,Observed Injury,"Dicamba MIBPA 0.36 lb ae/a alone, 8 DAA",0.0
same,Observed Injury,"Dicamba MIBPA 0.36 lb ae/a alone, 13 DAA",0.0
same,Observed Injury,"Dicamba MIBPA 0.36 lb ae/a alone, 23 DAA",0.75
same,Observed Injury,"Dicamba MIBPA 0.36 lb ae/a alone, 29 DAA",0.00
same,Observed Injury,"Dicamba MIBPA 0.36 lb ae/a alone, 44 DAA",0.50
